Here are results for 52 compounds from patent publication US20180170941A1 (priority 2016, published 2018).

Each structure is given as a SMILES string. Bounds are passed on as bounds.

T1 sequence (P31644 32-462): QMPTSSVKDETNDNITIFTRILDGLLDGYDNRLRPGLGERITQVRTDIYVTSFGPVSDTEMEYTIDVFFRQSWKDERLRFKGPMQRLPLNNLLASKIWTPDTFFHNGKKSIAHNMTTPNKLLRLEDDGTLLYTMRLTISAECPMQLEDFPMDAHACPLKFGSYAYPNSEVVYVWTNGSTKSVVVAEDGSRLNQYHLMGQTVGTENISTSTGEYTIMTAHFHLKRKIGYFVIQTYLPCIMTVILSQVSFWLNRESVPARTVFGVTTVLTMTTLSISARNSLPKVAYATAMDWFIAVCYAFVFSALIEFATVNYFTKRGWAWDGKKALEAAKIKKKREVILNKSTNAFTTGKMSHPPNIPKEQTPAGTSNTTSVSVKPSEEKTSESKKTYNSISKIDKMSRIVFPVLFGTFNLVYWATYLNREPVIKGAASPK
T1 sequence (P28472 26-473 partner): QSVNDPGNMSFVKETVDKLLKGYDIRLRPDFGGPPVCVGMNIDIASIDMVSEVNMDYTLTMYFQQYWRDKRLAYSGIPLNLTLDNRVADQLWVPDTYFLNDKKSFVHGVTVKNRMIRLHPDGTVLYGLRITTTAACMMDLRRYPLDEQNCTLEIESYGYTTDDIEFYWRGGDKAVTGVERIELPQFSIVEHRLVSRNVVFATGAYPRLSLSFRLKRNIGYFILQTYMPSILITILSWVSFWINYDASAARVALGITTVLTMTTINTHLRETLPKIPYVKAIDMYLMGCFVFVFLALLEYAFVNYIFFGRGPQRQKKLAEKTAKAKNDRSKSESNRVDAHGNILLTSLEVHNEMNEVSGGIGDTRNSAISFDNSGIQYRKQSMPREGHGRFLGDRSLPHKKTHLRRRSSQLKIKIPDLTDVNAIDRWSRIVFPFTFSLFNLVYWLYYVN
T1 sequence (P18507 40-475): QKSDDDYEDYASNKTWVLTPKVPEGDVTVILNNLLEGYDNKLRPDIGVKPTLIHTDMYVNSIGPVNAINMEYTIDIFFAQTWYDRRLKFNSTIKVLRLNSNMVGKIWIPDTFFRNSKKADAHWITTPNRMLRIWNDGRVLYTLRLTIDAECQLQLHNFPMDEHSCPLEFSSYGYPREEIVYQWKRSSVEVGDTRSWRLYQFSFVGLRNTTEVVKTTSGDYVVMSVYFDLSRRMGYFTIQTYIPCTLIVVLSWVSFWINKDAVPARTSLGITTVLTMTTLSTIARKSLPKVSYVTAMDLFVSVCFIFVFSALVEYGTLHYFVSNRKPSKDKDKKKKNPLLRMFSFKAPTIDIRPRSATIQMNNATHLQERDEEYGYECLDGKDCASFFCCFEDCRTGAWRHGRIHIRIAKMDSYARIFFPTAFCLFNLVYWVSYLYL

The first experiment has as its target T1, α5β3γ2 GABAA receptors (Ltk cell membranes) (Homo sapiens, UniProt P18507+P31644).
T1 construct: membranes
As to the kind of experiment: Binding activity of test compounds on GABAAR: inhibition of [3H]Ro15-1788 binding.
Conditions: not given
As for the experimental part:
Tissue culture and Membrane Preparation: The binding was performed on Ltk cells stably expressing GABAA receptors: α1β1γ2, α2β3γ2, α3β3γ2 and α5β3γ2 (provided by Merck Co., NJ, USA). Cells were seeded in 100 mm culture plates in DMEM/F12 medium containing 10% serum and antibiotics in 5% CO2 and allowed to grow for 1-2 days. GABAAR expression was then induced by dexamethasone as follows: 0.5 μM for 1 day for α5 containing and 2μM for 3 days for α1, α2 and α3 containing GABAARs. After induction, cells were collected by scraping into Dulbecco's Phosphate buffered saline (DPBS, pH 7.4, Invitrogen, Carlsbad, Calif., USA) and centrifuged at 150×g for 10 min. The pellet was washed twice by re-suspension and centrifugation. The cell pellets from at least 5 different preps were combined, suspended in the binding assay buffer (50 mM KH2P4; 1 mM EDTA; 0.2 M KCl, pH 7.4) and membranes prepared by sonication (3-5 times, 30 sec) using Branson Sonifier 150 (G.Heinmann, Germany). Protein content was determined using BCA assay (Bio-Rad Labs, Reinach, Switzerland) with Bovine Serum Albumin (Sigma Aldrich, St. Louis, Mo., USA) as the standard. Aliquots were prepared and stored at −20° C. for further use in binding assays.
Ligand Binding: Saturation binding curves were obtained by incubating membranes with increasing concentrations (0.01-8 nM) of [^3H]Ro15-1788 (Flumazepil, 75-85 Ci/mmol, PerkinElmer, MA, USA), with nonspecific binding measured in the presence of 10 μM diazepam.
All binding assays were performed for 1 h at 4° C. in assay buffer. The total assay volume was 0.5 ml containing 0.2 mg/ml protein for α5 and 0.4 mg/ml for α1, α2, and α3 containing GABAAR membranes. Incubations were terminated by filtration through GF/B filters using a 24-Cell Harvestor (Brandel, Gaithersburg, Md., USA) followed by 3 washes with ice-cold assay buffer. Filters were transferred to scintillation vials, 5 ml scintillation liquid added, vortex-mixed and kept in dark. Next day, radioactivity was obtained using a scintillation counter (Beckman Coulter, Brea, Calif., USA). All assays were performed in triplicate.
Data Analyses: Saturation and inhibition curves were obtained using GraphPad Prism software (GraphPad Software, Inc., CA, USA).
Consider `COc1ccc2c(c1)-c1nnc(COc3ccccc3C(C)(C)C)n1Cc1c(C#N)ncn1-2` [Compound 192], for which the Ki is > 1000 nM.

`COc1ccc2c(c1)-c1nnc(COc3ccccc3C(F)(F)F)n1Cc1c(C#N)ncn1-2` [Compound 193]: the inhibitory constant (Ki) is > 1000 nM.

The experiment is the same for the next values; noted with them: GABA α5 Binding Ki Values, inhibition of [3H]Ro15-1788 binding; reported as ranges.
The compound `Cc1cnc(-c2ncn3c2Cc2c(C)nnn2-c2cc(F)ccc2-3)nc1` [Compound 144] returned a Ki of 100 to 1000 nM.

Consider `Cc1nc(-c2ncn3c2Cc2c(C)nnn2-c2cc(F)ccc2-3)no1` [Compound 145], for which the Ki was < 100 nM.

In turn, `Cc1cnc(-c2ncn3c2Cc2c(C)nnn2-c2ccccc2-3)nc1` [Compound 146] came in with a Ki of 100 to 1000 nM.

As for `CC(C)c1nc(-c2ncn3c2Cn2c(COc4ccccc4)nnc2-c2cc(F)ccc2-3)no1` [Compound 147], the Ki is < 100 nM.

For `Cc1nc(-c2ncn3c2Cn2c(COc4ccccc4)nnc2-c2cc(F)ccc2-3)no1` [Compound 148], the inhibitory constant (Ki) is < 100 nM.

Turning to `Cc1nnn2c1Cc1c(-c3noc(C(C)C)n3)ncn1-c1ccc(F)cc1-2` [Compound 149], the Ki was < 100 nM.

For `Cc1nnn2c1Cc1c(-c3noc(C(F)(F)F)n3)ncn1-c1ccc(F)cc1-2` [Compound 150], the inhibition constant (Ki) was < 100 nM.

On to `Cc1nnn2c1Cc1c(-c3ncon3)ncn1-c1ccc(F)cc1-2` [Compound 151], for which the Ki is < 100 nM.

In the case of `Cc1nnn2c1Cc1c(-c3cnn(C)c3)ncn1-c1ccc(F)cc1-2` [Compound 152], the inhibition constant (Ki) was > 1000 nM.

In the case of `Cc1nnn2c1Cc1c(C(=O)OC(C)C)ncn1-c1ccccc1-2` [Compound 153], the Ki is < 100 nM.

Regarding `Cc1cc(-c2ncn3c2Cc2c(C)nnn2-c2cc(F)ccc2-3)ccn1` [Compound 154], the inhibition constant Ki was > 1000 nM.

As for `CCc1nc(-c2ncn3c2Cc2c(C)nnn2-c2cc(F)ccc2-3)no1` [Compound 155], the inhibition constant (Ki) was < 100 nM.

As for `CC(C)OC(=O)c1ncn2c1Cn1c(COc3ccccc3)nnc1-c1cc(F)ccc1-2` [Compound 156], the Ki was < 100 nM.

In the case of `N#Cc1ncn2c1Cn1c(COc3ccccc3)nnc1-c1cc(F)ccc1-2` [Compound 157], the inhibition constant Ki was < 100 nM.

Take `CCc1nc(-c2ncn3c2Cn2c(COc4ccccc4)nnc2-c2cc(F)ccc2-3)no1` [Compound 158]: the inhibition constant Ki was < 100 nM.

For the compound `Fc1ccc2c(c1)-c1nnc(COc3ccccc3)n1Cc1c(-c3noc(C(F)(F)F)n3)ncn1-2` [Compound 159], the Ki is < 100 nM.

For the compound `Cc1nnn2c1Cc1c(-c3noc(C(C)(C)C)n3)ncn1-c1ccc(F)cc1-2` [Compound 160], the inhibitory constant (Ki) was < 100 nM.

Take `C#Cc1ncn2c1Cc1c(C)nnn1-c1ccccc1-2` [Compound 161]: the Ki is < 100 nM.

On to `COc1ccc2c(c1)-c1nnc(COc3ccccc3)n1Cc1c(-c3noc(C)n3)ncn1-2` [Compound 162], for which the inhibition constant Ki is < 100 nM.

For the compound `COc1ccc2c(c1)-c1nnc(COc3ccc(F)cc3)n1Cc1c(-c3noc(C)n3)ncn1-2` [Compound 163], the inhibitory constant (Ki) was < 100 nM.

As for `COCc1nnc2n1Cc1c(-c3noc(C)n3)ncn1-c1ccc(OC)cc1-2` [Compound 164], the inhibition constant (Ki) was < 100 nM.

As for `COc1ccc2c(c1)-c1nnc(COCc3ccccc3)n1Cc1c(-c3noc(C)n3)ncn1-2` [Compound 165], the inhibition constant (Ki) was < 100 nM.

Regarding `COc1ccc2c(c1)-c1nnc(COCc3ccccc3)n1Cc1c(C#N)ncn1-2` [Compound 166], the Ki is < 100 nM.

`COc1ccc2c(c1)-n1nnc(C)c1Cc1c(-c3nc(C)no3)ncn1-2` [Compound 167]: the inhibition constant (Ki) is < 100 nM.

Turning to `COc1ccc2c(c1)-n1nnc(COc3cccc(F)c3)c1Cc1c(-c3noc(C)n3)ncn1-2` [Compound 168], the inhibitory constant (Ki) is < 100 nM.

`COCc1nnc2n1Cc1c(-c3noc(C(C)C)n3)ncn1-c1ccc(OC)cc1-2` [Compound 169]: the Ki was < 100 nM.

With `COc1ccc2c(c1)-n1nnc(CN3CCCC3)c1Cc1c(-c3nc(C(C)C)no3)ncn1-2` [Compound 170], the inhibitory constant (Ki) fell in the range of 100 to 1000 nM.

`COc1ccc2c(c1)-c1nnc(COc3ccccc3)n1Cc1c(-c3noc(C(C)C)n3)ncn1-2` [Compound 171]: the Ki was < 100 nM.

Consider `COc1ccc2c(c1)-c1nnc(COc3ccc(F)cc3)n1Cc1c(-c3noc(C(C)C)n3)ncn1-2` [Compound 172], for which the Ki is < 100 nM.

For `CCOCc1nnc2n1Cc1c(-c3noc(C(C)C)n3)ncn1-c1ccc(OC)cc1-2` [Compound 173], the Ki was < 100 nM.

In the case of `COc1ccc2c(c1)-c1nnc(COc3ccccc3F)n1Cc1c(-c3noc(C(C)C)n3)ncn1-2` [Compound 174], the inhibition constant Ki is < 100 nM.

As to `COc1ccc2c(c1)-c1nnc(COc3ccccc3Cl)n1Cc1c(-c3noc(C(C)C)n3)ncn1-2` [Compound 175], the inhibitory constant (Ki) is < 100 nM.

Take `COc1ccc2c(c1)-c1nnc(COc3cccnc3)n1Cc1c(-c3noc(C(C)C)n3)ncn1-2` [Compound 176]: the Ki was < 100 nM.

As for `COc1ccc2c(c1)-c1nnc(COc3cccc4ccccc34)n1Cc1c(-c3noc(C(C)C)n3)ncn1-2` [Compound 177], the inhibition constant (Ki) was < 100 nM.

As for `COc1ccc2c(c1)-c1nnc(COC3CCCC3)n1Cc1c(-c3noc(C(C)C)n3)ncn1-2` [Compound 178], the Ki is < 100 nM.

For `COc1ccc2c(c1)-c1nnc(COc3cccc(F)c3)n1Cc1c(-c3noc(C(C)C)n3)ncn1-2` [Compound 179], the Ki was < 100 nM.

For the compound `COc1ccc2c(c1)-n1nnc(COc3ccc(F)cc3)c1Cc1c(-c3noc(C)n3)ncn1-2` [Compound 180], the inhibitory constant (Ki) is < 100 nM.

In the case of `COc1ccc2c(c1)-n1nnc(COc3ccccc3F)c1Cc1c(-c3noc(C)n3)ncn1-2` [Compound 181], the inhibition constant (Ki) was < 100 nM.

Regarding `COc1ccc2c(c1)-n1nnc(COc3ccccc3)c1Cc1c(-c3noc(C)n3)ncn1-2` [Compound 182], the inhibitory constant (Ki) was < 100 nM.

Consider `COc1ccc2c(c1)-c1nnc(COCc3cccc(F)c3)n1Cc1c(-c3noc(C(C)C)n3)ncn1-2` [Compound 183], for which the Ki is < 100 nM.

`COc1ccc2c(c1)-c1nnc(COCc3ccccc3F)n1Cc1c(-c3noc(C(C)C)n3)ncn1-2` [Compound 184]: the Ki is < 100 nM.

As to `CC(C)c1nc(-c2ncn3c2Cn2c(COc4cccnc4)nnc2-c2cc(F)ccc2-3)no1` [Compound 185], the Ki is < 100 nM.

For the compound `COCc1nnc2n1Cc1c(-c3noc(C(C)C)n3)ncn1-c1ccc(F)cc1-2` [Compound 186], the Ki is < 100 nM.

`CCOCc1nnc2n1Cc1c(-c3noc(C(C)C)n3)ncn1-c1ccc(F)cc1-2` [Compound 187]: the inhibition constant Ki was < 100 nM.

For `CC(C)c1nc(-c2ncn3c2Cn2c(COc4cccc(F)c4)nnc2-c2cc(F)ccc2-3)no1` [Compound 188], the inhibitory constant (Ki) is < 100 nM.

Turning to `CC(C)c1nc(-c2ncn3c2Cn2c(COc4ccc(F)cc4)nnc2-c2cc(F)ccc2-3)no1` [Compound 189], the inhibitory constant (Ki) was < 100 nM.

`Cc1cccc(C)c1OCc1nnc2n1Cc1c(-c3noc(C(C)C)n3)ncn1-c1ccc(F)cc1-2` [Compound 190]: the Ki was < 100 nM.

Compound `COc1ccc2c(c1)-c1nnc(COc3ccc(F)cc3)n1Cc1c(C#N)ncn1-2` [Compound 191] yielded an inhibitory constant (Ki) of 100 to 1000 nM.

Regarding `CCc1nc(-c2ncn3c2Cc2c(Cc4ccccc4)nnn2-c2cc(OC)ccc2-3)no1` [Compound 194], the inhibition constant Ki is < 100 nM.

For the compound `CCc1nc(-c2ncn3c2Cc2c(Cc4ccc(F)cc4)nnn2-c2cc(OC)ccc2-3)no1` [Compound 195], the inhibition constant Ki was < 100 nM.
